According to patent US10508109B2 (priority 2015, dated 2019):
Where a name gives a salt, the structure may show the parent alone. Read-outs that look alike come from different tables or passages of the source.

Experiments:
A549 = test: Cell-based assay, anti-proliferative activity (Cell Counting Kit-8, 72 hours); conditions: Homo sapiens, read-out: IC50 (μM) A549
How it was run: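 After compound exposure of cells in 96-well plates, growth was measured colorimetrically and converted into IC50 values.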

CCD-18Co = test: as above; conditions: Homo sapiens, read-out: IC50 (μM) CCD-18Co
How it was run: (§1)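 Anti-proliferative IC50 obtained from 96-well cultures treated 72 h with inhibitor at 0–100 micro-M, growth assessed by a CCK-8 colorimetric readout.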

HCT-116 = test: as above; conditions: Homo sapiens, read-out: IC50 (μM) HCT-116
How it was run: as §1

HFL1 = test: as above; conditions: Homo sapiens, read-out: IC50 (μM) HFL1
How it was run: as §1

PC14 = test: as above; conditions: Homo sapiens, read-out: IC50 (μM) PC14
How it was run: as §1

SUV39H2 = SUV39H2 (Homo sapiens (Human), UniProt Q9H5I1); conditions: read-out: IC50 (μM) Suv 39H2 assay
[1] = A549 cells, Cell Counting Kit-8, 72 hours
[2] = CCD-18Co cells, Cell Counting Kit-8, 72 hours
[3] = HCT-116 cells, Cell Counting Kit-8, 72 hours
[4] = HFL1 cells, Cell Counting Kit-8, 72 hours
[5] = PC-14, PC14 cells, Cell Counting Kit-8, 72 hours

Chain of SUV39H2 (Q9H5I1 whole entry): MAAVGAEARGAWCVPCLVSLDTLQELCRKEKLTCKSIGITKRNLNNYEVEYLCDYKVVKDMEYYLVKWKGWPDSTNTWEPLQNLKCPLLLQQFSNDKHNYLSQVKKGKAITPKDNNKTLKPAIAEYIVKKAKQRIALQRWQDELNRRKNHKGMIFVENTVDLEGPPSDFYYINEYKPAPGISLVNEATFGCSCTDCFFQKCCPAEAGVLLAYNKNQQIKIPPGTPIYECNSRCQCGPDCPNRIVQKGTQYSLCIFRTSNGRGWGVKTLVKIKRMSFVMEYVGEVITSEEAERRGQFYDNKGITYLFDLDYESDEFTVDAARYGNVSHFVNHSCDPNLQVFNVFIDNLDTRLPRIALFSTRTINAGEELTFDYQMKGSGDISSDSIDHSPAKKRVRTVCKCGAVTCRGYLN

Structure (SMILES) | IC50 (A549; A549, 72 h) [µM] | IC50 (CCD-18Co; CCD-18Co, 72 h) [µM] | IC50 (HCT-116; HCT-116, 72 h) [µM] | IC50 (HFL1; HFL1, 72 h) [µM] | IC50 (PC14; PC-14, 72 h) [µM] | IC50 (SUV39H2; enzyme assay) [µM] | IC50 (A549; [1]) [µM] | IC50 (CCD-18Co; [2]) [µM] | IC50 (HCT-116; [3]) [µM] | IC50 (HFL1; [4]) [µM] | IC50 (PC14; [5]) [µM] | IC50 (SUV39H2) [µM]
CNc1ccn2cc(-c3cc(Br)c(OC)cc3OC)nc2c1 [Example 11, 2-(5-bromo-2,4-dimethoxyphenyl)-N-methylimidazo[1,2-a]pyridin-7-amine hydrobromide] | 1.4 | 2 | 1.1 | 1.7 | 0.88 | 0.0094 |  |  |  |  |  | 
COc1cc(OC)c(-c2cn3ccc(N4CCOCC4)cc3n2)cc1Cl [Example 12, 4-(2-(5-chloro-2,4-dimethoxyphenyl)imidazo[1,2-a]pyridin-7-yl)morpholine hydrobromide] |  |  |  |  |  | 0.012 | 6.9 | 9 | 5.1 | 6.8 | 2.9 | 
COc1cc(OC)c(-c2cn3ccc(N(C)C)cc3n2)cc1Cl [Example 22, 2-(5-chloro-2,4-dimethoxyphenyl)-N,N-dimethylimidazo[1,2-a]pyridin-7-amine hydrobromide] |  |  |  |  |  | 0.00515 | 1.6 | 3.6 | 3.3 | 1.7 | 1.6 | 
COc1cc(OC)c(-c2cn3ccc(N4CCC(NC(=O)OC(C)(C)C)C4)cc3n2)cc1Cl (stereo not drawn) [Example 23, tert-butyl{1-[2-(5-chloro-2,4-dimethoxyphenyl)imidazo[1,2-a]pyridin-7-yl]pyrrolidin-3-yl}carbamate] |  |  |  |  |  | 0.00635 | 2.4 | 2.8 | 1.8 | 1.2 | 1.7 | 
CNC1CCN(c2ccn3cc(-c4cc(Cl)c(OC)cc4OC)nc3c2)CC1 [Example 24, 1-(2-(5-chloro-2,4-dimethoxyphenyl)imidazo[1,2-a]pyridin-7-yl)-N-methylpiperidin-4-amine hydrochloride] | 5.5 | 11 | 4.4 | 2.7 | 5.7 |  |  |  |  |  |  | 0.00939
COc1cc(OC)c(-c2cn3ccc(N4CCC[C@@H](N)C4)cc3n2)cc1Cl [Example 30, (R)-1-(5-chloro-2,4-dimethoxyphenyl)imidazo[1,2-a]pyridine-7-yl)piperidin-3-amine dihydrochloride] |  |  |  |  |  | 0.009 | 3.4 | 3.9 | 5.1 | 2 | 2.3 | 
COc1cc(OC)c(-c2cn3ccc(N4CCC(N)C4)cc3n2)cc1Cl (stereo not drawn) [Example 33, 1-[2-(5-chloro-2,4-dimethoxyphenyl)imidazo[1,2-a]pyridin-7-yl]pyrrolidin-3-amine] |  |  |  |  |  | 0.00704 | 3.1 | 3.2 | 3.3 | 2.2 | 1.7 | 
COc1cc(OC)c(-c2cn3ccc(N4CCC(NC(C)=O)C4)cc3n2)cc1Cl (stereo not drawn) [Example 37, N-(1-(2-(5-chloro-2,4-dimethoxyphenyl)imidazo[1,2-a]pyridin-7-yl)pyrrolidin-3-yl)acetamide] |  |  |  |  |  | 0.00435 | 14 | 11 | 12 | 5.4 | 8.2 | 
COc1cc(OC)c(-c2cn3ccc(N4CCC(NS(C)(=O)=O)C4)cc3n2)cc1Cl (stereo not drawn) [Example 40, N-(1-(2-(5-chloro-2,4-dimethoxyphenyl)imidazo[1,2-a]pyridin-7-yl)pyrrolidin-3-yl)methanesulfonamide] |  |  |  |  |  | 0.00381 | 17 | 15 | 14 | 14 | 6.7 | 
COc1cc(OC)c(-c2cn3ccc(N4CCC(CO)CC4)cc3n2)cc1Cl [Example 41, (1-(2-(5-chloro-2,4-dimethoxyphenyl)imidazo[1,2-a]pyridine-7-yl)piperidin-4-yl)methanol] |  |  |  |  |  | 0.0054 | 3.2 | 3.1 | 3.5 | 2.9 | 2.8 | 
COc1cc(OC)c(-c2cn3ccc(N4CCN(CCO)CC4)cc3n2)cc1Cl [Example 43, 2-(4-(2-(5-chloro-2,4-dimethoxyphenyl)imidazo[1,2-a]pyridine-7-yl)piperazin-1-yl)ethanol dihydrochloride] | 14 | 11 | 14 | 6.9 | 9.8 |  |  |  |  |  |  | 0.00854
COc1cc(OC)c(-c2cn3ccc(N4CC[C@H](NC(=O)OC(C)(C)C)C4)cc3n2)cc1Cl [Example 44, (S)-tert-butyl (1-(2-(5-chloro-2,4-dimethoxyphenyl)imidazo[1,2-a]pyridin-7-yl)-pyrrolidin-3-yl)carbamate] |  |  |  |  |  | 0.00982 | 3 | 2.2 | 3.4 | 1.1 | 1.6 | 
COc1cc(OC)c(-c2cn3ccc(N4CC[C@H](N)C4)cc3n2)cc1Cl [Example 47, (S)-1-(2-(5-Chloro-2,4-dimethoxyphenyl)imidazo[1,2-a]pyridin-7-yl)pyrrolidin-3-amine hydrochloride] | 3 | 3.5 | 3.4 | 2 | 4.5 |  |  |  |  |  |  | 0.00829
COc1cc(OC)c(-c2cn3ccc(N4CCCC4)cc3n2)cc1C#N [Example 49, 2,4-dimethoxy-5-[7-(pyrrolidin-1-yl)imidazo[1,2-a]pyridin-2-yl]benzonitrile] | 1.5 | 1.1 | 1.3 | 0.8 | 1.3 | 0.00371 |  |  |  |  |  | 
COc1cc(OC)c(-c2cn3ccc(N(C)CCN)cc3n2)cc1Cl [Example 54, N^1-(2-(5-chloro-2,4-dimethoxyphenyl)imidazo[1,2-a]yridine-7-yl)-N1-metylethane-1,2-diamine] | 4.2 | 3.3 | 3.1 | 2.5 | 4.9 | 0.00585 |  |  |  |  |  | 
COc1cc(OC)c(-c2cn3cc(NCCN)c(N4CCCC4)cc3n2)cc1Cl [Example 60, N^1-(2-(5-chloro-2,4-dimethoxyphenyl)-7-(pyrrolidin-1-yl)imidazo[1,2-a]-pyridin-6-yl)ethane-1,2-diamine] | 6.8 | 6 | 6.8 | 2 | 2.6 | 0.0094 |  |  |  |  |  | 
COc1cc(OC)c(-c2cn3ccc(N4CCC(CCNC(=O)OC(C)(C)C)CC4)nc3n2)cc1Cl [Example 61, tert-butyl (2-{1-[2-(5-chloro-2,4-dimethoxyphenyl)imidazo[1,2-a]pyrimidin-7-yl]piperidin-4-yl}-ethyl)carbamate] |  |  |  |  |  | 0.00831 | 4.5 | 4.3 | 4.1 | 3.4 | 1.7 | 
COc1cc(OC)c(-c2cn3ccc(N4CCC(NS(=O)(=O)C5CC5)C4)cc3n2)cc1Cl (stereo not drawn) [Example 63, N-(1-(2-(5-chloro-2,4-dimethoxyphenyl)imidazo[1,2-a]pyridine-7-yl)pyrrolidin-3-yl)cyclopropanesulfonamide] |  |  |  |  |  | 0.00395 | 3 | 3.8 | 1.6 | 1.7 | 2.1 | 
COc1cc(OC)c(-c2cn3ccc(N4CCC(NC(C)=O)C4)nc3n2)cc1Br (stereo not drawn) [Example 66] |  |  |  |  |  | 0.00747 | 25 | 27 | 18 | 26 | 16 | 
COc1cc(OC)c(-c2cn3ccc(N4CCC(NC(=O)OC(C)(C)C)C4)cc3n2)cc1C#N (stereo not drawn) [Example 71, tert-butyl {1-[2-(5-cyano-2,4-dimethoxyphenyl)imidazo[1,2-a]pyridin-7-yl]pyrrolidin-3-yl}carbamate] |  |  |  |  |  | 0.0075 | 2.6 | 3.2 | 1.9 | 1.6 | 2 | 
COc1cc(OC)c(-c2cn3ccc(N4CCC(CCN)CC4)cc3n2)cc1Cl [Example 72, 2-(1-(2-(5-chloro-2,4-dimethoxyphenyl)imidazo[1,2-a]pyridine-7-yl)piperidin-4-yl)ethanamine dihydrochloride] | 5.3 | 7 | 4.9 | 3.7 | 2.5 |  |  |  |  |  |  | 0.00875
COc1cc(OC)c(-c2cn3cc(NCCN)c(OC)cc3n2)cc1Cl [Example 75, N^1-(2-(5-chloro-2,4-dimethoxyphenyl)-7-methoxyimidazo[1,2-a]-pyridin-6-yl)ethane-1,2-diamine] |  |  |  |  |  | 0.00271 | 6.9 | 7.2 | 6.7 | 3.5 | 5.7 | 
COc1cc(OC)c(-c2cn3cc(NCCN)c(C)cc3n2)cc1Cl [Example 78, N^1-(2-(5-chloro-2,4-dimethoxyphenyl)-7-methylimidazo[1,2-a]pyridin-6-yl)ethane-1,2-diamine] | 6.3 | 5.7 | 5.6 | 2.7 | 6.1 | 0.00431 |  |  |  |  |  | 
